Blank lines part the entries; values can stand above or below the compound they belong to.
Assays:
soluble WT MR1 = experiment: fluorescence-based thermal shift (thermostability) assay of MR1–ligand complexes; type: binding, human; details: MR1 refolded with the ligand, SYPRO Orange, 28 to 95°C, three independent experiments
MAIT cells from PBMCs = experiment: primary MAIT cell activation in PBMCs (CD69, TNF); type: cell-based, human; details: 16-h incubation
[1] = tested on: CD3^+ MR1-5-OP-RU tetramer^+ MAIT cells; experiment: MAIT cell proliferation in CTV-labeled PBMCs; type: cell-based, human; details: 7-day culture, 5-OP-RU 10 µM, others 100 µM
[2] = tested on: T1, folded MR1 in C1R.MR1 cells; experiment: intracellular total folded MR1 by flow cytometry (8F2.F9); type: cell-based, human; details: 16 h, 100 µM
T1 construct: expressed in transfected cells; host or cells: C1R B lymphoblastoid cells transduced with MR1*01

[3] = tested on: T2, MR1^R9H on C1R.MR1^R9H cells; experiment: cell surface MR1^R9H by flow cytometry; type: cell-based, human
T2 construct: expressed in transfected cells; host or cells: C1R cells stably transduced with MR1^R9H
Description: (§1) We then tested the effect of the RF catabolites on the expression of two mutant versions of MR1 termed MR1^R9H ([Howson et al., 2020]) and MR1^K43A ([Reantragoon et al., 2013]). First, we tested the MR1^R9H mutant ([Howson et al., 2020]), which represents a rare, natural human polymorph. […] We used C1R.MR1^R9H cells, which are produced by stable transduction of wild-type C1R cells, which express low levels of wild-type MR1, with a vector expressing the MR1^R9H mutant ([Howson et al., 2020]). […] When C1R. […] Next, we sought to understand how the previously characterized K43A mutation affects ligand binding.
The level of MR1 expressed on the cell surface was measured after the exposure to the investigated ligands as previously described ([Awad et al., 2020a]; [Wang et al., 2022a]). C1R Ag-presenting B lymphocytes overexpressing MR1*01 (C1R.MR1), MR1^K43A mutant (C1R.MR1^K43A), MR1^R9H mutant (C1R.MR1^R9H), or HLA-A*02:01 (C1R-A2), in addition to the monocytic THP-1-MR1 cells, were used in this study. […] The PE fluorescence intensity reflects the surface MR1 level. The data were acquired with LSRFortessa X-20 (BD Biosciences) and Diva software (BD Biosciences) and analyzed using FlowJo software (BD Biosciences).

MR1 in C1R.MR1 cells = tested on: T3, MR1 in C1R.MR1 cells; experiment: Endo H treatment and western blot of intracellular MR1; type: cell-based, human; details: 16 h, Ac-6-FP 10 μM, RF and catabolites 100 μM
T3 construct: expressed in transfected cells; host or cells: C1R B lymphoblastoid cells transduced with MR1*01
Method: The downregulation of MR1 on the cell surface by the RF catabolites could be due to the depletion of the intracellular ER-resident MR1 pool, or due to the retention of MR1 in the ER, as shown for the DB28 ligand ([Salio et al., 2020]). To investigate this, C1R.MR1 cells were treated for 16 h with 100 µM RF or RF catabolites, conditions that induce MR1 downregulation (Fig. 3 A). Cells were lysed, and treated with endoglycosidase (Endo) H, to distinguish molecules that remain within the ER from those that have trafficked to the cell surface ([McWilliam et al., 2016]), and then, MR1 levels were assessed by immunoblotting (Fig. 3 A).
C1R.MR1 cells were cultured with different RF catabolites for 16 h, at 37°C. Samples were then treated with or without Endo H for 1-h incubation at 37°C. Cells were lysed, and lysate protein concentration was quantified by BCA assay. Equal amounts of samples (40 µg total protein) were separated on SDS-PAGE gels before being transferred onto nitrocellulose membranes and incubated with primary (anti-MR1; clone 8G3) ([McWilliam et al., 2020]) then corresponding secondary antibody (IRDye 800CW anti-mouse IgG, Cat. No. 925-32210; LICORbio). The protein bands were visualized by the Li-Cor system.

[4] = tested on: SKW-3 cells expressing MAIT TCR MBV28; experiment: SKW-3 reporter T cell activation (CD69), coculture with C1R.MR1; type: cell-based; details: SKW-3-MBV28, in the presence of 5-OP-RU
Method: (§2) Given the intracellular MR1 retention induced by the RF catabolites, we anticipated that these ligands could influence the activity of MR1-reactive T cells. First, we utilized a system whereby reporter SKW-3 T cell lines were cocultured with C1R.MR1 APCs and activation was determined by CD69 expression. […] In contrast, SKW-3-MBV28 cells were inhibited by alloxazine but activated by lumichrome (Fig. S3, D–F). Two MR1-restricted TRAV1-2^−ve SKW-3 T cell lines were also tested.
(§3) C1R.MR1 cells (1 × 10^5) were initially stained with CTV (Thermo Fisher Scientific) for 15 min and then incubated with RF catabolites for 20 h. […] Cells were subsequently stained with PE-Cy7-conjugated anti-CD69 (1:100; BD Biosciences) and PE-labeled anti-MR1 (1:100, clone 26.5; BD Biosciences), before analysis on a LSRFortessa (BD Biosciences) flow cytometer. Activation of the SKW-3 cells was reflected by the cell surface CD69 expression.

SKW-3-DGB129 line = experiment: as above; type: cell-based; details: SKW-3-DGB129 cocultured with C1R.MR1
Method: as §2, §3

[5] = tested on: SKW-3 cells expressing MAIT TCR AF-7; experiment: as above; type: cell-based
Method: as §2, §3

SKW-3-MAV36 line = experiment: as above; type: cell-based; details: SKW-3-MAV36, in the presence of 5-OP-RU
Method: as §2, §3

[6] = tested on: T4, surface MR1*01 on C1R.MR1 cells; experiment: quantification of cell surface MR1 by flow cytometry, C1R.MR1 cells; type: cell-based, human; details: C1R.MR1 cells, 3 h, 1–200 µM, 8F2F9 antibody
T4 construct: expressed in transfected cells; host or cells: C1R B lymphoblastoid cells transduced with MR1*01

[7] = tested on: T5, MR1 on PBMC-derived B lymphocytes; experiment: MR1 surface expression on primary B cells; type: cell-based; details: primary human B cells, 16 h, highest doses, with or without 5-OP-RU
T5 construct: we also measured MR1 on the surface of cells expressing wild-type levels of MR1; endogenous in cells; host or cells: PBMC-derived B lymphocytes from healthy human donors

hMR1 protein = target: T6, hMR1 protein (Homo sapiens, UniProt Q95460); experiment: fluorescence polarization–based cell-free assay, competition with JYM20 for MR1 binding; details: 50% inhibition of 10 nM JYM20 binding to 100 nM empty hMR1, 37°C; three independent experiments in triplicate
T6 construct: plasmids encoding for the extracellular domains of MR1, β2m, and the AF-7 TCRα and TCRβ chains; made in house; host or cells: Escherichia coli BL21(DE3)

[8] = tested on: T7, MR1^K43A on C1R.MR1^K43A cells; experiment: cell surface MR1^K43A by flow cytometry; type: cell-based, human; details: 3 h
T7 construct: expressed in transfected cells; host or cells: C1R cells overexpressing MR1^K43A
Description: as §1
The level of MR1 expressed on the cell surface was measured after the exposure to the investigated ligands as previously described ([Awad et al., 2020a]; [Wang et al., 2022a]). C1R Ag-presenting B lymphocytes overexpressing MR1*01 (C1R.MR1), MR1^K43A mutant (C1R.MR1^K43A), MR1^R9H mutant (C1R.MR1^R9H), or HLA-A*02:01 (C1R-A2), in addition to the monocytic THP-1-MR1 cells, were used in this study. 2 × 10^5 cells were incubated with RF catabolites for 3 or 16 h at 37°C and 5% CO2 in 200 μl folate-free RPMI 1640 medium from Gibco (Cat. No. 11875-093) fortified with 10% fetal bovine serum, sodium pyruvate (1 mmol/L), HEPES buffer (15 mmol/L), pH 7.2–7.5, 2% penicillin (100 U/ml), streptomycin ([…]), GlutaMAX (2 mmol/L), nonessential amino acids (0.1 mmol/L) (all from Thermo Fisher Scientific, Life Technologies), and 2-mercaptoethanol ([…], Sigma-Aldrich) (RF-10). After incubation, the cells were first stained with Zombie Aqua Fixable Viability Kit from BioLegend (Cat. No. 423102) and then incubated with biotinylated 8F2F9 αMR1 antibody for 30 min on ice. The unbound antibody was then washed off with 2% fetal bovine serum/PBS (called 2% FACS hereafter) buffer. The cells were finally incubated with PE-conjugated streptavidin (30 μg/ml; BioLegend) and then washed with 2% FACS buffer. The PE fluorescence intensity reflects the surface MR1 level. The data were acquired with LSRFortessa X-20 (BD Biosciences) and Diva software (BD Biosciences) and analyzed using FlowJo software (BD Biosciences).

[9] = tested on: T8, human MR1–β2-microglobulin (β2m) complex; experiment: refolding of recombinant MR1-β2m with ligand; type: binding; details: ligand added to refolding buffer; gel filtration and SDS-PAGE
T8 construct: plasmids encoding for the extracellular domains of MR1, β2m, and the AF-7 TCRα and TCRβ chains; made in house

SMILES: CC(=O)C=Nc1c(NCC(O)C(O)C(O)CO)[nH]c(=O)[nH]c1=O [5-OP-RU, 5-(2-oxopropylideneamino)-6-D-ribitylaminouracil, reference compound]
Tm50 (half-maximum melting temperature), Mean ± SD (soluble WT MR1): 58.14 ± 0.60 °C
CD69 upregulation on MAIT cells, ligand alone (MAIT cells from PBMCs): induced robust CD69 upregulation
MAIT cell proliferation [1]: significantly proliferated

SMILES: CC(=O)Nc1nc2ncc(C=O)nc2c(=O)[nH]1 [Ac-6-FP, acetyl-6-FP, reference compound]
Tm50 (half-maximum melting temperature), Mean ± SD (soluble WT MR1): 64.22 ± 0.27 °C
total level of folded MR1 (intracellular staining with 8F2.F9) [2]: significantly increased total folded MR1
MR1^R9H surface level [3]: significantly increased
Endo H–resistant MR1 (MR1 in C1R.MR1 cells): increase in MR1 of a higher molecular weight, in line with Endo H resistance

IC50 (hMR1 protein): 13.4 µM
SMILES: O=c1nc2[nH]c3ccccc3nc-2c(=O)[nH]1 [Alloxazine, alloxazine]
reactivity to 5-OP-RU (CD69) [4]: inhibited
reactivity of MR1 autoreactive, nucleobase-adduct reactive line (CD69) (SKW-3-DGB129 line): inhibited
reactivity to 5-OP-RU (CD69) ([5]; SKW-3-AF-7, in the presence of 1 nM 5-OP-RU): not altered
reactivity to RL-7-Me (CD69) ([5]; SKW-3-AF-7, in the presence of 100 nM RL-7-Me): inhibited in a dose-dependent manner
reactivity to 5-OP-RU (CD69) (SKW-3-MAV36 line): inhibited
MR1 cell surface expression [6]: reduced MR1 cell surface
MR1 surface expression [7]: reduced MR1 surface expression
Tm50 (half-maximum melting temperature), Mean ± SD (soluble WT MR1; listed as MR1-Alloxazine): 50.73 ± 0.45 °C
total level of folded MR1 (intracellular staining with 8F2.F9) [2]: increased the total level of folded MR1
MR1^K43A at the cell surface [8]: increased MR1^K43A at the cell surface
folding of the MR1-β2m cocomplex in solution [9]: facilitated the correct folding of the MR1-β2m cocomplex
